According to patent US20230131899A1, “INHIBITORS OF MICROBIALLY INDUCED AMYLOID” (Axial Therapeutics, Inc., priority 2020, published 2023):
Like-named read-outs stand apart in the source and are kept apart here.

System: CsgA gene expression (csgBAC promoter-GFP reporter) in E. coli UTI89
Assay: In vitro live cell fluorescent reporter assay of CsgA transcription (Reporter Assay)
Assay type: cell-based
Outline: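 Chromosomal single-copy csgBAC promoter–GFP reporter in E. coli UTI89, started at OD600 0.003 in YESCA broth with compound (0.14–100 μM, 1% DMSO), 20 h at 27 °C. GFP (ex 485/em 525 nm) background-subtracted and normalized to vehicle; IC50 and X[50] from curve fits. OD600 tracked growth effects.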

[1] = Escherichia coli, read-out: Reporter Assay Abs IC50 (μM), median Abs IC50 in the CsgA reporter assay, N/A = maximum expression reduction is <50% of control
[2] = Escherichia coli, read-out: Reporter Assay Abs IC50, activity range, class symbol
[3] = Escherichia coli, read-out: Reporter Assay Abs IC50 (activity range), median Abs IC50 in the CsgA reporter assay, class symbol

Row | Compound | IC50 [1] [µM] | IC50 [2] [µM] | IC50 [3] [µM] | IC50 (read-out: Reporter Assay Abs IC50 (activity range), median Abs IC50 in the CsgA reporter assay, class symbol) [µM] | IC50 (read-out: Reporter Assay Abs IC50, median Abs IC50 in the CsgA reporter assay, N/A = maximum expression reduction is <50% of control) [µM]
1 | COc1ccc(CN2CC(C(=O)O)n3c2c(-c2cccc(C(F)(F)F)c2)c(Cc2cccc4ccccc24)c(Cl)c3=O)cc1 (centres unmarked) [Compound 192, 6-chloro-1-(4-methoxybenzyl)-7-(naphthalen-1-ylmethyl)-5-oxo-8-(3-(trifluoromethyl)phenyl)-1,2,3,5-tetrahydroimidazo[1,2-a]pyridine-3-carboxylic acid] | 2.5 | 1.3 to 4.5 | – | – | –
2 | CCCCN1CC(C(=O)O)n2c(c(-c3cccc(C(F)(F)F)c3)c(Cc3cccc4ccccc34)c(C(N)=O)c2=O)S1(=O)=O (centres unmarked) [Compound 177, 2-butyl-7-carbamoyl-8-(naphthalen-1-ylmethyl)-6-oxo-9-(3-(trifluoromethyl)phenyl)-3,4-dihydro-2H,6H-pyrido[1,2-e][1,2,5]thiadiazine-4-carboxylic acid 1,1-dioxide] | 1.3 | 1.3 to 4.5 | – | – | –
3 | O=C(O)C1CN(CCCO)S(=O)(=O)c2c(-c3cccc(C(F)(F)F)c3)c(Cc3cccc4ccccc34)cc(=O)n21 (centres unmarked) [Compound 056, 2-(3-hydroxypropyl)-8-(naphthalen-1-ylmethyl)-6-oxo-9-(3-(trifluoromethyl)phenyl)-3,4-dihydro-2H,6H-pyrido[1,2-e][1,2,5]thiadiazine-4-carboxylic acid 1,1-dioxide] | 19.8 | – | > 10 | – | –
4 | CCNC(=O)c1c(Cc2cccc3ccccc23)c(-c2cccc(C(F)(F)F)c2)c2n(c1=O)C(C(=O)O)CN(C)S2(=O)=O (centres unmarked) [Compound 156, 7-(ethylcarbamoyl)-2-methyl-8-(naphthalen-1-ylmethyl)-6-oxo-9-(3-(trifluoromethyl)phenyl)-3,4-dihydro-2H,6H-pyrido[1,2-e][1,2,5] thiadiazine-4-carboxylic acid 1,1-dioxide] | 9.3 | 4.6 to 10 | – | – | –
5 | O=C(O)c1c(-c2ccccc2)sc2c(-c3cccc(C(F)(F)F)c3)c(Cc3cccc4ccccc34)cc(=O)n12 [Compound 051, 7-(naphthalen-1-ylmethyl)-5-oxo-2-phenyl-8-(3-(trifluoromethyl)phenyl)-5H-thiazolo[3,2-a]pyridine-3-carboxylic acid] | 1 | – | < 1.3 | – | –
6 | CCCN1CC(C(=O)O)n2c(c(-c3cccc(C(F)(F)F)c3)c(Cc3cccc4ccccc34)c(NC(=O)C(C)C)c2=O)S1(=O)=O (centres unmarked) [Compound 152, 7-isobutyramido-8-(naphthalen-1-ylmethyl)-6-oxo-2-propyl-9-(3-(trifluoromethyl)phenyl)-3,4-dihydro-2H,6H-pyrido[1,2-e][1,2,5]thiadiazine-4-carboxylic acid 1,1-dioxide] | 11.4 | > 10 | – | – | –
7 | O=C(O)C1CN(Cc2cccc(O)c2)c2c(-c3cccc(C(F)(F)F)c3)c(Cc3cccc4ccccc34)c(Cl)c(=O)n21 (centres unmarked) [Compound 196, 6-chloro-1-(3-hydroxybenzyl)-7-(naphthalen-1-ylmethyl)-5-oxo-8-(3-(trifluoromethyl)phenyl)-1,2,3,5-tetrahydroimidazo[1,2-a]pyridine-3-carboxylic acid] | 2.8 | 1.3 to 4.5 | – | – | –
8 | Cn1c(=O)c2c(ncn2CCCCCN2CC(C(=O)O)n3c(c(-c4cccc(C(F)(F)F)c4)c(Cc4cccc5ccccc45)cc3=O)S2(=O)=O)n(C)c1=O (centres unmarked) [Compound 034, 2-(5-(1,3-dimethyl-2,6-dioxo-1,2,3,6-tetrahydro-7H-purin-7-yl)pentyl)-8-(naphthalen-1-ylmethyl)-6-oxo-9-(3-(trifluoromethyl)phenyl)-3,4-dihydro-2H,6H-pyrido[1,2-e][1,2,5]thiadiazine-4-carboxylic acid 1,1-dioxide] | 2.8 | – | 1.3 to 4.5 | – | –
9 | CNC(=O)CCCN1CC(C(=O)O)n2c(c(-c3cccc(C(F)(F)F)c3)c(Cc3cccc4ccccc34)cc2=O)S1(=O)=O (centres unmarked) [Compound 037, 2-(4-(methylamino)-4-oxobutyl)-8-(naphthalen-1-ylmethyl)-6-oxo-9-(3-(trifluoromethyl)phenyl)-3,4-dihydro-2H,6H-pyrido[1,2-e][1,2,5]thiadiazine-4-carboxylic acid 1,1-dioxide] | 23.6 | – | > 10 | – | –
10 | O=C(O)c1c(CCc2ccccc2)sc2c(-c3cccc(C(F)(F)F)c3)c(Cc3cccc4ccccc34)cc(=O)n12 [Compound 062, 7-(naphthalen-1-ylmethyl)-5-oxo-2-phenethyl-8-(3-(trifluoromethyl)phenyl)-5H-thiazolo[3,2-a]pyridine-3-carboxylic acid] | 0.9 | – | < 1.3 | – | –
11 | CC(C)CN1CC(C(=O)O)n2c1c(-c1cccc(C(F)(F)F)c1)c(Cc1cccc3ccccc13)c(Cl)c2=O (centres unmarked) [Compound 164, 6-chloro-1-isobutyl-7-(naphthalen-1-ylmethyl)-5-oxo-8-(3-(trifluoromethyl)phenyl)-1,2,3,5-tetrahydroimidazo[1,2-a]pyridine-3-carboxylic acid] | 0.9 | < 1.3 | – | – | –
12 | O=C(O)C1COc2c(-c3cccc(C(F)(F)F)c3)c(Cc3cccc4ccccc34)cc(=O)n21 (centres unmarked) [Compound 064, 7-(naphthalen-1-ylmethyl)-5-oxo-8-(3-(trifluoromethyl)phenyl)-2,3-dihydro-5H-oxazolo[3,2-a]pyridine-3-carboxylic acid] | 45.3 | – | > 10 | – | –
13 | CCc1c(Cc2cccc3ccccc23)c(-c2cccc(C(F)(F)F)c2)c2n(c1=O)C(C(=O)O)CN2Cc1ccc(OC)cc1 (centres unmarked) [Compound 161, 6-ethyl-1-(4-methoxybenzyl)-7-(naphthalen-1-ylmethyl)-5-oxo-8-(3-(trifluoromethyl)phenyl)-1,2,3,5-tetrahydroimidazo[1,2-a]pyridine-3-carboxylic acid] | 2.1 | 1.3 to 4.5 | – | – | –
14 | CCCCN1CC(C(=O)O)n2c1c(-c1cccc(C(F)(F)F)c1)c(Cc1cccc3ccccc13)c(Cl)c2=O (centres unmarked) [Compound 163, 1-butyl-6-chloro-7-(naphthalen-1-ylmethyl)-5-oxo-8-(3-(trifluoromethyl)phenyl)-1,2,3,5-tetrahydroimidazo[1,2-a]pyridine-3-carboxylic acid] | 1.2 | < 1.3 | – | – | –
15 | O=C(O)C1CSc2c(-c3cccc(C(F)(F)F)c3)c(Cc3cccc4ccccc34)c(CO)c(=O)n21 (centres unmarked) [Compound 057, 6-(hydroxymethyl)-7-(naphthalen-1-ylmethyl)-5-oxo-8-(3-(trifluoromethyl)phenyl)-2,3-dihydro-5H-thiazolo[3,2-a]pyridine-3-carboxylic acid] | 7.1 | – | 4.6 to 10 | – | –
16 | O=C(O)C1CN(Cc2ccccc2)c2c(-c3cccc(C(F)(F)F)c3)c(Cc3cccc4ccccc34)cc(=O)n21 (centres unmarked) [Compound 187, 1-benzyl-7-(naphthalen-1-ylmethyl)-5-oxo-8-(3-(trifluoromethyl)phenyl)-1,2,3,5-tetrahydroimidazo[1,2-a]pyridine-3-carboxylic acid] | 19 | > 10 | – | – | –
17 | Cn1c(=O)c2c(nc(CCCCCN3CC(C(=O)O)n4c(c(-c5cccc(C(F)(F)F)c5)c(Cc5cccc6ccccc56)cc4=O)S3(=O)=O)n2C)n(C)c1=O (centres unmarked) [Compound 045, 8-(naphthalen-1-ylmethyl)-6-oxo-9-(3-(trifluoromethyl)phenyl)-2-(5-(1,3,7-trimethyl-2,6-dioxo-2,3,6,7-tetrahydro-1H-purin-8-yl)pentyl)-3,4-dihydro-2H,6H-pyrido[1,2-e][1,2,5]thiadiazine-4-carboxylic acid 1,1-dioxide] | 1.3 | – | 1.3 to 4.5 | – | –
18 | CN1CC(C(=O)O)n2c(c(-c3cccc(C(F)(F)F)c3)c(Cc3cccc4ccccc34)c(NCc3ccccc3)c2=O)S1(=O)=O (centres unmarked) [Compound 071] | 1.6 | – | 1.3 to 4.5 | – | –
19 | CCCCCN1CC(C(=O)O)n2c(c(-c3cccc(C(F)(F)F)c3)c(Cc3cccc4ccccc34)cc2=O)S1(=O)=O (single isomer, unassigned) [Compound 025a, 8-(naphthalen-1-ylmethyl)-6-oxo-2-pentyl-9-(3-(trifluoromethyl)phenyl)-3,4-dihydro-2H,6H-pyrido[1,2-e][1,2,5]thiadiazine-4-carboxylic acid 1,1-dioxide] | 2 | – | 1.3 to 4.5 | – | –
20 | CCCN1CC(C(=O)O)n2c(c(-c3cccc(C(F)(F)F)c3)c(Cc3cccc4ccccc34)c(NC(=O)CC)c2=O)S1(=O)=O (centres unmarked) [Compound 153, 8-(naphthalen-1-ylmethyl)-6-oxo-7-propionamido-2-propyl-9-(3-(trifluoromethyl)phenyl)-3,4-dihydro-2H,6H-pyrido[1,2-e][1,2,5]thiadiazine-4-carboxylic acid 1,1-dioxide] | 16.6 | > 10 | – | – | –
21 | CCCN1CC(C(=O)O)n2c(c(-c3cccc(C(F)(F)F)c3)c(Cc3cccc4ccccc34)cc2=O)S1(=O)=O (single isomer, unassigned) [Compound 016b, 8-(naphthalen-1-ylmethyl)-6-oxo-2-propyl-9-(3-(trifluoromethyl)phenyl)-3,4-dihydro-2H,6H-pyrido[1,2-e][1,2,5]thiadiazine-4-carboxylic acid 1,1-dioxide] | – | – | – | 4.6 to 10 | 6.6
22 | CC(C)N1CC(C(=O)O)n2c(c(-c3cccc(C(F)(F)F)c3)c(Cc3cccc4ccccc34)c(C(N)=O)c2=O)S1(=O)=O (centres unmarked) [Compound 175, 7-carbamoyl-2-isopropyl-8-(naphthalen-1-ylmethyl)-6-oxo-9-(3-(trifluoromethyl)phenyl)-3,4-dihydro-2H,6H-pyrido[1,2-e][1,2,5]thiadiazine-4-carboxylic acid 1,1-dioxide] | 1.4 | 1.3 to 4.5 | – | – | –
